Experimental data as given in patent US20250093263A1, “FRET-BASED ASSAYS” (The General Hospital Corporation, priority 2021, published 2025).
“And” between values parts separate entries of the source, which are not always exact repeats. Equal entries are not always repeated. Where two headings read alike, the source gives them in different places.

Tests used:
[1] = target: T1, WT Keap1 (tag-free, full-length) (Homo sapiens, UniProt Q14145); test: biochemical
[2] = target: T1, WT Keap1 (tag-free, full-length); test: Keap1 TR-FRET Assay 2 (CDDO-FITC/Cora-1-KL9)
[3] = target: T2, Keap1 (His/GST) (Homo sapiens, UniProt Q14145); test: biochemical
T2 sequence (Q14145 whole entry): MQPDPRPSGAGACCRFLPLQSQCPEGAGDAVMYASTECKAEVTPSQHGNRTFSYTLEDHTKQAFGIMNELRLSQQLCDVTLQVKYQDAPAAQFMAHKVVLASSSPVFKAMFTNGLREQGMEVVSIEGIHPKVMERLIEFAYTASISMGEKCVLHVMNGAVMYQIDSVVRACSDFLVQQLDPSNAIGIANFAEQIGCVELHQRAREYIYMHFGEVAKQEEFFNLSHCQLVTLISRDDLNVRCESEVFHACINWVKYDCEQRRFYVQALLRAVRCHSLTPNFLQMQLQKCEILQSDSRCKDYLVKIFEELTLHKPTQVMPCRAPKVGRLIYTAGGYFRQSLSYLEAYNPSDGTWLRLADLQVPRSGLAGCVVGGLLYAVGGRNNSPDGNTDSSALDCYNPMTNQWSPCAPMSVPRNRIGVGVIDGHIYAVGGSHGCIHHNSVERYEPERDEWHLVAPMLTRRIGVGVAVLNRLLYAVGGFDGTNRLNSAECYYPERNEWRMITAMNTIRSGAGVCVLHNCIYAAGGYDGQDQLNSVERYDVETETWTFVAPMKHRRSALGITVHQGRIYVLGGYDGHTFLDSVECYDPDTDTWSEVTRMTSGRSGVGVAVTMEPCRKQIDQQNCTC

[4] = target: T2, Keap1 (His/GST); test: Keap1 TR-FRET Assay 3 (CDDO-FITC/Tb-Anti-6xHis); format: binding
[5] = target: T1, WT Keap1 (tag-free, full-length); test: biochemical; conditions: read-out: Assay 1: % at 100
[6] = pH 7.4, 1-octanol / sodium phosphate buffer
[7] = target: T3, PfcProRS (Plasmodium falciparum, UniProt Q8I5R7); test: biochemical; format: binding; conditions: PfcProRS KD, absence of substrates (0 μM ATP)
T3 construct: made in house; host or cells: SoluBL-21 E. coli
T3 sequence (Q8I5R7 249-746): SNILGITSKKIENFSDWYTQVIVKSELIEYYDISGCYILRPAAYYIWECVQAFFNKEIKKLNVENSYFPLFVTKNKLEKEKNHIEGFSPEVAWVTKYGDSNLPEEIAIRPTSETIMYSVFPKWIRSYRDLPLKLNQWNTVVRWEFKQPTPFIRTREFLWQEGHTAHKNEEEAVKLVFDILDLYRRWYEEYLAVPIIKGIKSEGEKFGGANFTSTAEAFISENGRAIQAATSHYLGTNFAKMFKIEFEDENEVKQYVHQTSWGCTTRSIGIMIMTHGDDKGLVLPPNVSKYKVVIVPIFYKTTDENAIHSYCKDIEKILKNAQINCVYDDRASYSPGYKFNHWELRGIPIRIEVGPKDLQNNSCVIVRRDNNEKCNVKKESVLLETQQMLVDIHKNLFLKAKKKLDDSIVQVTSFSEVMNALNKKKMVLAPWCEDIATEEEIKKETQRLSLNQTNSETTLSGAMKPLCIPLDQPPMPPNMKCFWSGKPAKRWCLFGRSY
Method: (§1) A stock solution containing CoraFluor-1-Halo-labeled HT-PfcProRS or CoraFluor-1-Halo-labeled HT-HsProRS at the concentration specified for each experiment was prepared in assay buffer (50 mM Tris, pH 7.5, 20 mM KCl, 10 mM MgCl2, 0.05% Tween-20, 1 mM dithiothreitol, and 0.5 mg/mL BSA). […] Plates were mixed on an Ika MTS 2/4 Digital Microtiter Shaker at 750 rpm for 2 min, centrifuged at 1,000×g at 25° C. for 1 min. and allowed to equilibrate at room temperature for 2 h before TR-FRET measurements were taken. […] PRISM 9 (GraphPad) was used to perform non-linear regression analysis (one site—specific binding), plot dose-response curves, and calculate KD values.
(§2) A Multidrop Combi Reagent Dispenser (ThermoFisher Scientific) was used to dispense 20 μL of 2× protein solution into each well. […] Plates were mixed on an Ika MTS 2/4 Digital Microtiter Shaker at 750 rpm for 2 min, centrifuged at 1,000×g at 25° C. for I min, and allowed to equilibrate for 2 h at room temperature before TR-FRET measurements were taken.
(§3) PRISM 9 (GraphPad) was used to perform non-linear regression analysis (log(inhibitor) vs. response—Variable slope (four parameters)), plot dose-response curves, and calculate iC50 values.
(§4) Test compounds were dispensed in duplicate, triplicate, or sextuplicate dose-response format using a D300 digital dispenser (Hewlett Packard). […] Plates were mixed on an Ika MTS 2/4 Digital Microtiter Shaker at 750 rpm for 2 min, centrifuged at 1,000×g at 25° C. for 1 min, and allowed to equilibrate for 2 h at room temperature.
(§5) GraphPad PRISM was used to perform non-linear regression (log(inhibitor) vs. response—Variable slope (four parameters)), plot dose-response curves, and calculate IC50 values.
(§6) This assay was generally conducted in the same manner as the CoraFluor-1-Halo format with minor differences. […] Each well was supplemented with 1 nM CoraFluor-1-Pfp-labeled anti-His6 antibody before the 2 h incubation.
(§7) TR-FRET measurements were acquired in kinetic mode (1 read every ˜45 s) for at least 10 min.

[8] = target: T4, HsProRS (Homo sapiens, UniProt P07814); test: TR-FRET ProRS ligand displacement / saturation binding assay, HsProRS; conditions: absence of substrates; read-out: HsProRS (KD [nM]) −
T4 construct: made in house; host or cells: SoluBL-21 E. coli
T4 sequence (P07814 996-1512): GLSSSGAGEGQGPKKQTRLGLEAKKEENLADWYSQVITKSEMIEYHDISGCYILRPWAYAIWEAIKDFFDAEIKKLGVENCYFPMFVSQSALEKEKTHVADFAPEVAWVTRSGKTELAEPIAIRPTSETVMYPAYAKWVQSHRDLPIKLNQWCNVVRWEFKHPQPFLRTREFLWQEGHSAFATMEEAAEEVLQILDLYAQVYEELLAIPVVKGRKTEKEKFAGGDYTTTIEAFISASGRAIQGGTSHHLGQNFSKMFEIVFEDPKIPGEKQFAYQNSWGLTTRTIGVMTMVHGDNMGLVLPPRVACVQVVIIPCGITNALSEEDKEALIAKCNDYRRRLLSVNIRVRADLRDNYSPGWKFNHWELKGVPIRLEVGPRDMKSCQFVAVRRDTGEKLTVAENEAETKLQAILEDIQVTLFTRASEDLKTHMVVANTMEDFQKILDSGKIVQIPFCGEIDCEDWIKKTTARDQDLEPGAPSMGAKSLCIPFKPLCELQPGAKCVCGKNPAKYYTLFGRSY
Method: as §1, §2, §3, §4, §5, §6, §7

[9] = target: T5, HsGluProRS (Homo sapiens, UniProt P07814); test: HsGluProRS TR-FRET in HEK293 lysate; format: binding; conditions: 250 nM tracer, serially diluted HEK293T lysate, anti-HsGluProRS antibodies
T5 construct: assay was developed utilizing native proteins in cell lysate or intact cells; endogenous in cells
T5 sequence (P07814 whole entry): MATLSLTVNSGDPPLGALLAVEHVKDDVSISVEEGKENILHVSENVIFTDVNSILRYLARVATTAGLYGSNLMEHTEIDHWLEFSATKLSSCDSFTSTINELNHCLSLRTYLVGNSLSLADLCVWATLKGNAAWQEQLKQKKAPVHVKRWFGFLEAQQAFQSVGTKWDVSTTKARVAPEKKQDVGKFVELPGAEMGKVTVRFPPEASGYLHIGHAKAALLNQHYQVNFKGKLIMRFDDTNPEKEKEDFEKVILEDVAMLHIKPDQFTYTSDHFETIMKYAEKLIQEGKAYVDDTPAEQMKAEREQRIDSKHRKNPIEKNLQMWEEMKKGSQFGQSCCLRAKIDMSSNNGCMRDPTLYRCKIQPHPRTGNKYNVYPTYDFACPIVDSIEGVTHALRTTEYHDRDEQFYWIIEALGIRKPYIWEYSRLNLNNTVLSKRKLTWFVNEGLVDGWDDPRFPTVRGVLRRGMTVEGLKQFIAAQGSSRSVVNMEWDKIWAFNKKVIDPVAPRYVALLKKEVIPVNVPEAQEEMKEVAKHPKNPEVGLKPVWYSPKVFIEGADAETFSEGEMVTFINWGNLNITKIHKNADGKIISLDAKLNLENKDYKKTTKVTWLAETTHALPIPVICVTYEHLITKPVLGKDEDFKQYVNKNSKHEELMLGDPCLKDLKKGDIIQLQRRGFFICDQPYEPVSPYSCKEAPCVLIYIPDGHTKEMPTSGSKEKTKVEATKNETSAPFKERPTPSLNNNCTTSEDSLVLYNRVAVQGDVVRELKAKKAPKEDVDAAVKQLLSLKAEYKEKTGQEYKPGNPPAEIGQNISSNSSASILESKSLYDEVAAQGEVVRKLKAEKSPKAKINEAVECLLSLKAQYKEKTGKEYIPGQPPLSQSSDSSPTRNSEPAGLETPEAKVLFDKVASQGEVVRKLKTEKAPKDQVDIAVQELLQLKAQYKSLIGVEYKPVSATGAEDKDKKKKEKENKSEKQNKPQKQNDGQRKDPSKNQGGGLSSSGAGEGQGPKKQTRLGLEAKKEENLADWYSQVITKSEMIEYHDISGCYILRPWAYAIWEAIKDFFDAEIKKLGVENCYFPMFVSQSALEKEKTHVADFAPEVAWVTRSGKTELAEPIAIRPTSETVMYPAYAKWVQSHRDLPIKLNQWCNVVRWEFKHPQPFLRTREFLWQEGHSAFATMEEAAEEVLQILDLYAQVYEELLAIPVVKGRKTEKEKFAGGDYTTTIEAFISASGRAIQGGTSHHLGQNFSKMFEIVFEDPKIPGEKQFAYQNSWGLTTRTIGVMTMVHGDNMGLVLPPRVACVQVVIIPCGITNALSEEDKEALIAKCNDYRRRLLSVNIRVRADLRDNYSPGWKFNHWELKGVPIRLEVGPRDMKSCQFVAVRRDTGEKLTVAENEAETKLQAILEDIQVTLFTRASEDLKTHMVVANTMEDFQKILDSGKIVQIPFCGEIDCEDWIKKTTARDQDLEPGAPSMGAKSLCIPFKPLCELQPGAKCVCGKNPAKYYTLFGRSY
Text: Freshly prepared HEK293 cell lysates were serial diluted into flat-bottom, white 384-well plates (Corning 3572).
Abcam ab31531 was raised against an Abcam-proprietary, recombinant, full-length HsGluProRS protein. Proteintech 67712-1-Ig was raised against a peptide encoding HsGluProRS residues 1163-1512. Cell Signaling Technology CST45956 was raised against a peptide encoding residues surrounding HsGluProRS^P978. CTK0101 (ChromTek) anti-Rabbit-IgG secondary nanobody (single domain nanobody) was previously labeled with CoraFluor-1-Pfp and validated to bind Rabbit IgG antibodies with high affinity.
For the TR-FRET assay, HEK293T lysate was serially diluted into 384-well plates containing constant concentrations of tracer (either 250 nM MAT574 for ProRS or 250 nM MAT579 for GluRS), one of the antibodies (5 nM), and for the unlabeled antibodies, CoraFluor-1-Pfp labeled nano secondary (20 nM).

[10] = target: T6, MtbPheRS (Mycobacterium tuberculosis phenylalanyl-tRNA synthetase) (Mycobacterium tuberculosis, UniProt P9WFU3); test: PheRS activity-based assay, MtbPheRS; format: biochemical
T6 construct: made in house; host or cells: Mycobacterium
T6 sequence (P9WFU3 whole entry): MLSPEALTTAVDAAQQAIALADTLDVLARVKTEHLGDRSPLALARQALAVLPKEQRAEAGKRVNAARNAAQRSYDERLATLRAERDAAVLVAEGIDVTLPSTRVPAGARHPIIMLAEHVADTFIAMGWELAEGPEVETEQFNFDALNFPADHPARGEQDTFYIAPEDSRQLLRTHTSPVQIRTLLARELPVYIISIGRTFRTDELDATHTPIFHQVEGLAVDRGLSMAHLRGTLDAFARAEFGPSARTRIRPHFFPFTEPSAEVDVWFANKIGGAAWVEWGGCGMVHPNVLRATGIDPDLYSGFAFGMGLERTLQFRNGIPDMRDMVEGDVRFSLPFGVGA
T6 sequence (P9WFU1 whole entry, further chain): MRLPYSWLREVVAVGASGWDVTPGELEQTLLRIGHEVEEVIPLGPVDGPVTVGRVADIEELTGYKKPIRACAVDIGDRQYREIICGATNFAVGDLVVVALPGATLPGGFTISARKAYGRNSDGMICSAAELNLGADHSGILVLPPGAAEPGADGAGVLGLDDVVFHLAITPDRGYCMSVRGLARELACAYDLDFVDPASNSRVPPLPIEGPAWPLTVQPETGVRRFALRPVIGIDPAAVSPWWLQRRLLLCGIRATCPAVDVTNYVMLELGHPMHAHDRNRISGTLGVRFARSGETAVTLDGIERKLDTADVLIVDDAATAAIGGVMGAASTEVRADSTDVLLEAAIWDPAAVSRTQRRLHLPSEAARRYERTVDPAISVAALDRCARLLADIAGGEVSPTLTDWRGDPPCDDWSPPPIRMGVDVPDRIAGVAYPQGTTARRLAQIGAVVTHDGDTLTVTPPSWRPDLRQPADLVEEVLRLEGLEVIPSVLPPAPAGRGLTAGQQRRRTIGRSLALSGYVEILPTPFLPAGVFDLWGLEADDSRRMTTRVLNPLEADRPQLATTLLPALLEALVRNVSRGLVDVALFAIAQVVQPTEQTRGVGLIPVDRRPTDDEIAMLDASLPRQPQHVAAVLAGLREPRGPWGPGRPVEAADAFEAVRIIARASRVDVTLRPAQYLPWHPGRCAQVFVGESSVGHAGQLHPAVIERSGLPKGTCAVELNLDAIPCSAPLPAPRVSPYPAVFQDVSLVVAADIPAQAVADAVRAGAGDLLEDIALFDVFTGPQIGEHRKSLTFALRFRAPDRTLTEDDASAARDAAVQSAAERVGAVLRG

[11] = target: T7, HscPheRS (human cytoplasmic phenylalanyl-tRNA synthetase) (Homo sapiens, UniProt Q9Y285); test: PheRS activity-based assay, HscPheRS; format: biochemical
T7 construct: made in house; host or cells: E. coli
T7 sequence (Q9Y285 1-508): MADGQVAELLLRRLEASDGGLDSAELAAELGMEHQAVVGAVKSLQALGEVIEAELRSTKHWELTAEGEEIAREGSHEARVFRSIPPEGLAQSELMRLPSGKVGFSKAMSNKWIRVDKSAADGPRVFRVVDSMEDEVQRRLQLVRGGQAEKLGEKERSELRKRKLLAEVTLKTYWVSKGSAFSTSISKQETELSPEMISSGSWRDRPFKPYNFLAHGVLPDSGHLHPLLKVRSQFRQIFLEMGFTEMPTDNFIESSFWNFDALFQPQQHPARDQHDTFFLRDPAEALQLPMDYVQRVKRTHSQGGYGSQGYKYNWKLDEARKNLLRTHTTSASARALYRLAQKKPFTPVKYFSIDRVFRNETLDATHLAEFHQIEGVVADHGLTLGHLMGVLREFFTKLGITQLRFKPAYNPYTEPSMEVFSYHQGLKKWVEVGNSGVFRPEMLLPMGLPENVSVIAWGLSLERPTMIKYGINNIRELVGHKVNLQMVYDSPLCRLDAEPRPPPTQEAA
T7 sequence (Q9NSD9 1-589 partner): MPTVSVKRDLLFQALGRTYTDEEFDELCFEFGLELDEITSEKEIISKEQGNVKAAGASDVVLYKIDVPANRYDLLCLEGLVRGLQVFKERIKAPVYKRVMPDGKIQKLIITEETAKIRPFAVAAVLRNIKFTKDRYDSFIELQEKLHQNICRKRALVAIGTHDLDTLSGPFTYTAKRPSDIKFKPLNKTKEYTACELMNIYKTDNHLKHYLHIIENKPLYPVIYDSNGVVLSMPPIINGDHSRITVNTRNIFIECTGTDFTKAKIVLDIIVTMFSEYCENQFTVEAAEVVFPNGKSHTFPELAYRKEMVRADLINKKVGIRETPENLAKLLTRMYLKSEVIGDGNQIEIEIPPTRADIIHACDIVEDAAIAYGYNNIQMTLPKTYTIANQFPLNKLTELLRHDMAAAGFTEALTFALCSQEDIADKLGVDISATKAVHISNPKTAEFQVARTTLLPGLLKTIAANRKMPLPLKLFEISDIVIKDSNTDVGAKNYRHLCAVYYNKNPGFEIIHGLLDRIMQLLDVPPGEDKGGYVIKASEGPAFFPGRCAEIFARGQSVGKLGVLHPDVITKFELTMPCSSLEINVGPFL

T1 sequence (Q14145 whole entry): as the sequence (Q14145 whole entry) above

Molecule `CC1(C)CC[C@]2(C(=O)NCCCOCCOCCOCCCNC(=S)Nc3ccc(-c4c5ccc(=O)cc-5oc5cc(O)ccc45)c(C(=O)O)c3)CC[C@]3(C)[C@H](C(=O)C=C4[C@@]5(C)C=C(C#N)C(=O)C(C)(C)[C@@H]5CC[C@]43C)[C@@H]2C1` [CDDO-FITC, 5-(3-(1-((4aS,6aR,6bS,8aR,12aS,14aR,14bS)-11-cyano-2,2,6a,6b,9,9,12a-heptamethyl-10,14-dioxo-1,3,4,5,6,6a,6b,7,8,8a,9,10,12a,14,14a,14b-hexadecahydropicen-4a(2H)-yl)-1-oxo-6,9,12-trioxa-2-azapentadecan-15-yl)thioureido)-2-(6-hydroxy-3-oxo-3H-xanthen-9-yl)benzoic acid] has a Kd [1] of 0.164 µM and a Kd ([2]; Kd of CDDO-FITC, saturation binding at fixed Cora-1-KL9 and Keap1, one-site model) of 0.164 ± 0.0371 µM.

In the case of `Cc1sc2c(c1C)C(c1ccc(Cl)cc1)=NC(CC(=O)NCCCOCCOCCOCCCNC(=O)[C@]13CCC(C)(C)C[C@H]1[C@H]1C(=O)C=C4[C@@]5(C)C=C(C#N)C(=O)C(C)(C)[C@@H]5CC[C@@]4(C)[C@]1(C)CC3)c1nnc(C)n1-2` (stereo partly drawn) [CDDO-JQ1, (4aS,6aR,6bS,8aR,12aS,14aR,14bS)-N-(1-(4-(4-chlorophenyl)-2,3,9-trimethyl-6H-thieno[3,2-f][1,2,4]triazolo[4,3-a][1,4]diazepin-6-yl)-2-oxo-7,10,13-trioxa-3-azahexadecan-16-yl)-11-cyano-2,2,6a,6b,9,9,12a-heptamethyl-10,14-dioxo-1,3,4,5,6,6a,6b,7,8,8a,9,10,12a,14,14a,14b-hexadecahydropicene-4a(2H)-carboxamide], the IC50 [1] is reported as 3.37 µM, the Kd [1] is reported as 1.77 µM and the IC50 [3] is reported as 495 µM. The IC50 [4] was 2.68 µM, the “fold less potent than CDDO (CDDO/CDDO-Me)” value ([2]; Assay-2) was > 250 fold and > 500 fold and the inhibition at 100 µM [5] was less than 5%.

In the case of `O=C(CCCCCN1CCN2CCNC(=O)c3cccc(c3[O-])C(=O)NCCN(CCNC(=O)c3cccc(c3[O-])C1=O)CCN1CCNC(=O)c3cccc(c3[O-])C(=O)NCCN(CCNC(=O)c3cccc(c3[O-])C(=O)NCC1)CC2)NCCOCCOCCCCCCCl.[Tb+3]` [Cora-1-Halo], the “log D” value [6] is reported as −0.7.

For `O=C(CCCCCN1CCN2CCNC(=O)c3cc(Cl)cc(c3[O-])C(=O)NCCN(CCNC(=O)c3cc(Cl)cc(c3[O-])C1=O)CCN1CCNC(=O)c3cc(Cl)cc(c3[O-])C(=O)NCCN(CCNC(=O)c3cc(Cl)cc(c3[O-])C(=O)NCC1)CC2)NCCOCCOCCCCCCCl.[Tb+3]` [Cora-2-Halo], the “log D” value [6] was 0.7.

For `Nc1ncnc2c1ncn2[C@@H]1O[C@H](CN(CCCCCCOCCOCCNC(=O)c2ccc(C(=O)O)c(-c3c4ccc(=O)cc-4oc4cc(O)ccc34)c2)S(=O)(=O)NC(=O)[C@@H]2CCCN2)[C@@H](O)[C@H]1O` [MAT574, 4-((2-(2-((6-((N-(L-prolyl)sulfamoyl)(((2R,3S4R,5R)-5-(6-amino-9H-purin-9-yl)-3,4-dihydroxytetrahydrofuran-2-yl)methyl)amino)hexyl)oxy)ethoxy)ethyl)carbamoyl)-2-(6-hydroxy-3-oxo-3H-xanthen-9-yl)benzoic acid], the Kd [7] was 2.27 µM, the Kd [8] was 72.2 nM and the “TR-FRET signal” value [9] was “specific TR-FRET signal”.

For `Nc1ncnc2c1ncn2[C@@H]1O[C@H](CN(CCCCCCOCCOCCNC(=O)c2ccc(C(=O)O)c(-c3c4ccc(=O)cc-4oc4cc(O)ccc34)c2)S(=O)(=O)NC(=O)[C@@H](N)CCC(=O)O)[C@@H](O)[C@H]1O` [MAT579, 4-((2-(2-((6-((N-(L-glutamyl)sulfamoyl)(((2R,3S,4R,5R)-5-(6-amino-9H-purin-9-yl)-3,4-dihydroxytetrahydrofuran-2-yl)methyl)amino)hexyl)oxy)ethoxy)ethyl)carbamoyl)-2-(6-hydroxy-3-oxo-3H-xanthen-9-yl)benzoic acid], the “TR-FRET signal” value [9] was “No TR-FRET signal was observed”.

In the case of `Nc1ncnc2c1ncn2[C@@H]1O[C@H](CNS(=O)(=O)NC(=O)[C@@H](N)Cc2ccccc2)[C@@H](O)[C@H]1O` [PheSNA, (S)-amino-N-(N-(((2R,3S,4R,5R)-5-(6-amino-9H-purin-9-yl)-3,4-dihydroxytetrahydrofuran-2-y)methyl)sulfamoyl)-3-phenylpropanamide], the IC50 [10] is reported as 2 µM and the IC50 [11] is reported as 0.14 µM.

Work on “(S)-2-amino-N-(N-(((2R,3S,4R,5R)-S-(6-amino-9H-purin-9-yl)-3,4-dihydroxytetrahydrofuran-2-yl)methyl)-N-(6-(2-(2-aminoethoxy)ethoxy)hexyl)sulfamoyl)-3-phenylpropanamide [MAT581]” yielded an IC50 ([10]; phenylalanine 100 μM, ATP 200 μM) of 206 µM.
